The values below come from patent publication US12723063B2, “GIPR-agonist compounds” (Eli Lilly and Company, priority 2019, dated 2026).

pKi: −log10 of the molar value. *1 amine or outer side, *2 acyl side, *3 side chain or, on linkers, in order; H or OH if unused. Where a SMILES comes first, the peptide text is derived from it. Side-chain parts run from the residue outwards. [ ]: non-standard residue; d: D form. The star is where a group is joined. C20 diacid = O=C(O)CCCCCCCCCCCCCCCCCCC(=O)*; αMePhe(2-F) = C[C@](N)(Cc1ccccc1F)C(=O)O; γGlu = O=C(O)[C@H](CCC(=O)[*:2])N[*:1]; αMeF = C[C@](N)(Cc1ccccc1)C(=O)O; 4Pal = N[C@@H](Cc1ccncc1)C(=O)O; αMeL = CC(C)C[C@](C)(N)C(=O)O; Iva = CC[C@](C)(N)C(=O)O; AEEA = NCCOCCOCC(=O)O; Aib = CC(C)(N)C(=O)O

T1 sequence (P43220 24-463): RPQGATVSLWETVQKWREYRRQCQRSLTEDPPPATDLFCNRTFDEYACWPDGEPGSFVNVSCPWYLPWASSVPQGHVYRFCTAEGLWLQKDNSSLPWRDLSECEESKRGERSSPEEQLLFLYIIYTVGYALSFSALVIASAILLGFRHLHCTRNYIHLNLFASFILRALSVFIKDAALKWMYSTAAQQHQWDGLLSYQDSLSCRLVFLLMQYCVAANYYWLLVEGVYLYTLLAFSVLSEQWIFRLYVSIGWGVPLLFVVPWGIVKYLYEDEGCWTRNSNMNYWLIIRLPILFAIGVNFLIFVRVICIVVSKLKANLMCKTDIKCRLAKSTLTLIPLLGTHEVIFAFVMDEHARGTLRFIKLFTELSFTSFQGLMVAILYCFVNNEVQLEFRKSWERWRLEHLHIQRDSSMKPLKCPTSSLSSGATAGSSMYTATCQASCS

This assay has as its target T1, human GLP-1R (Homo sapiens, UniProt P43220).
T1 construct: expressed in transfected cells; crude membranes
As to the kind of experiment: [125I]-GLP-1 binding, SPA with WGA beads, 0.1% bacitracin. The note with it: geometric mean, read-out: hGLP1R Ki. An outline of the steps: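 Binding buffer was 25 mM HEPES pH 7.4 with 2.5 mM CaCl2, 1 mM MgCl2, 0.1% (w/v) bacitracin, 0.003% Tween-20 and EDTA-free protease inhibitors. Four-parameter regression gave IC50, converted to Ki (geometric mean, SEM, n independent days).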
`CC[C@H](C)[C@H](NC(=O)[C@H](CO)NC(=O)[C@H](Cc1ccc(O)cc1)NC(=O)[C@H](CC(=O)O)NC(=O)[C@H](CO)NC(=O)[C@@H](NC(=O)[C@](C)(CC)NC(=O)[C@@H](NC(=O)CNC(=O)[C@H](CCC(=O)O)NC(=O)C(C)(C)NC(=O)[C@@H](N)Cc1ccc(O)cc1)[C@@H](C)O)[C@@H](C)CC)C(=O)N[C@@](C)(CC(C)C)C(=O)N[C@@H](CC(C)C)C(=O)N[C@@H](CC(=O)O)C(=O)N[C@@H](CCCCN)C(=O)N[C@@H](CCCCNC(=O)COCCOCCNC(=O)COCCOCCNC(=O)CC[C@H](NC(=O)CCCCCCCCCCCCCCCCCCC(=O)O)C(=O)O)C(=O)N[C@@H](Cc1c[nH]cn1)C(=O)N[C@@H](CCC(N)=O)C(=O)NC(C)(C)C(=O)N[C@@H](CC(=O)O)C(=O)N[C@@H](Cc1ccccc1)C(=O)N[C@H](C(=O)N[C@@H](CCC(=O)O)C(=O)N[C@@H](Cc1ccncc1)C(=O)N[C@@H](CC(C)C)C(=O)N[C@@H](CC(C)C)C(=O)N[C@@H](C)C(=O)NCC(=O)NCC(=O)N1CCC[C@H]1C(=O)N[C@@H](CO)C(=O)N[C@@H](CO)C(=O)NCC(=O)N[C@@H](C)C(=O)N1CCC[C@H]1C(=O)N1CCC[C@H]1C(=O)N1CCC[C@H]1C(=O)N[C@@H](CO)C(N)=O)C(C)C` [Example 55] (H-Y[Aib]EGT[Iva]ISDYSI[αMeL]LDKK([AEEA-AEEA-γGlu-C20 diacid])HQ[Aib]DFVE[4Pal]LLAGGPSSGAPPPS-NH2): the pKi was 6.58.
The result for `CC[C@H](C)[C@H](NC(=O)[C@H](CO)NC(=O)[C@H](Cc1ccc(O)cc1)NC(=O)[C@H](CC(=O)O)NC(=O)[C@H](CO)NC(=O)[C@@H](NC(=O)[C@](C)(Cc1ccccc1)NC(=O)[C@@H](NC(=O)CNC(=O)[C@H](CCC(=O)O)NC(=O)C(C)(C)NC(=O)[C@@H](N)Cc1ccc(O)cc1)[C@@H](C)O)[C@@H](C)CC)C(=O)N[C@@H](C)C(=O)N[C@@H](CC(C)C)C(=O)N[C@@H](CC(=O)O)C(=O)N[C@@H](CCCCN)C(=O)N[C@@H](CCCCNC(=O)COCCOCCNC(=O)COCCOCCNC(=O)CC[C@H](NC(=O)CCCCCCCCCCCCCCCCCCC(=O)O)C(=O)O)C(=O)N[C@@H](Cc1c[nH]cn1)C(=O)N[C@@H](CCC(N)=O)C(=O)NC(C)(C)C(=O)N[C@@H](CC(=O)O)C(=O)N[C@@H](Cc1ccccc1)C(=O)N[C@H](C(=O)N[C@@H](CCC(=O)O)C(=O)N[C@@H](Cc1ccncc1)C(=O)N[C@@H](CC(C)C)C(=O)N[C@@H](CC(C)C)C(=O)N[C@@H](CCC(=O)O)C(=O)N[C@H](C(=O)NCC(=O)N1CCC[C@H]1C(=O)N[C@@H](CO)C(=O)N[C@@H](CO)C(=O)NCC(=O)N[C@@H](C)C(=O)N1CCC[C@H]1C(=O)N1CCC[C@H]1C(=O)N1CCC[C@H]1C(=O)N[C@@H](CO)C(N)=O)[C@@H](C)O)C(C)C` [Example 41] (H-Y[Aib]EGT[αMeF]ISDYSIALDKK([AEEA-AEEA-γGlu-C20 diacid])HQ[Aib]DFVE[4Pal]LLETGPSSGAPPPS-NH2) reads less than 6.04; that for `CC[C@H](C)[C@H](NC(=O)[C@H](CO)NC(=O)[C@H](Cc1ccc(O)cc1)NC(=O)[C@H](CC(=O)O)NC(=O)[C@H](CO)NC(=O)[C@@H](NC(=O)[C@](C)(Cc1ccccc1F)NC(=O)[C@@H](NC(=O)CNC(=O)[C@H](CCC(=O)O)NC(=O)C(C)(C)NC(=O)[C@@H](N)Cc1ccc(O)cc1)[C@@H](C)O)[C@@H](C)CC)C(=O)N[C@@H](C)C(=O)N[C@@H](CC(C)C)C(=O)N[C@@H](CC(=O)O)C(=O)N[C@@H](CCCCN)C(=O)N[C@@H](CCCCNC(=O)COCCOCCNC(=O)COCCOCCNC(=O)CC[C@H](NC(=O)CCCCCCCCCCCCCCCCCCC(=O)O)C(=O)O)C(=O)N[C@@H](Cc1c[nH]cn1)C(=O)N[C@@H](CCC(N)=O)C(=O)NC(C)(C)C(=O)N[C@@H](CCC(=O)O)C(=O)N[C@@H](Cc1ccccc1)C(=O)N[C@H](C(=O)N[C@@H](CC(N)=O)C(=O)N[C@@H](Cc1ccc(O)cc1)C(=O)N[C@@H](CC(C)C)C(=O)N[C@@H](CC(C)C)C(=O)N[C@@H](C)C(=O)N[C@H](C(=O)NCC(=O)N1CCC[C@H]1C(=O)N[C@@H](CO)C(=O)N[C@@H](CO)C(=O)NCC(=O)N[C@@H](C)C(=O)N1CCC[C@H]1C(=O)N1CCC[C@H]1C(=O)N1CCC[C@H]1C(=O)N[C@@H](CO)C(N)=O)[C@@H](C)O)C(C)C` [Example 34] (H-Y[Aib]EGT[αMePhe(2-F)]ISDYSIALDKK([AEEA-AEEA-γGlu-C20 diacid])HQ[Aib]EFVNYLLATGPSSGAPPPS-NH2), 6.70.
The figure for `CC[C@H](C)[C@H](NC(=O)[C@H](Cc1ccccc1)NC(=O)[C@@H](NC(=O)CNC(=O)[C@H](CCC(=O)O)NC(=O)C(C)(C)NC(=O)[C@@H](N)Cc1ccc(O)cc1)[C@@H](C)O)C(=O)N[C@@H](CO)C(=O)N[C@@H](CC(=O)O)C(=O)N[C@@H](Cc1ccc(O)cc1)C(=O)N[C@@H](CO)C(=O)N[C@H](C(=O)N[C@@](C)(CC(C)C)C(=O)N[C@@H](CC(C)C)C(=O)N[C@@H](CC(=O)O)C(=O)N[C@@H](CCCCN)C(=O)N[C@@H](CCCCNC(=O)COCCOCCNC(=O)COCCOCCNC(=O)CC[C@H](NC(=O)CCCCCCCCCCCCCCCCCCC(=O)O)C(=O)O)C(=O)N[C@@H](Cc1c[nH]cn1)C(=O)N[C@@H](CCC(N)=O)C(=O)NC(C)(C)C(=O)N[C@@H](CC(=O)O)C(=O)N[C@@H](Cc1ccccc1)C(=O)N[C@H](C(=O)N[C@@H](CCC(=O)O)C(=O)N[C@@H](Cc1c[nH]c2ccccc12)C(=O)N[C@@H](CC(C)C)C(=O)N[C@@H](CC(C)C)C(=O)N[C@@H](C)C(=O)NCC(=O)NCC(=O)N1CCC[C@H]1C(=O)N[C@@H](CO)C(=O)N[C@@H](CO)C(=O)NCC(=O)N[C@@H](C)C(=O)N1CCC[C@H]1C(=O)N1CCC[C@H]1C(=O)N1CCC[C@H]1C(=O)N[C@@H](CO)C(N)=O)C(C)C)[C@@H](C)CC` [Example 54] (H-Y[Aib]EGTFISDYSI[αMeL]LDKK([AEEA-AEEA-γGlu-C20 diacid])HQ[Aib]DFVEWLLAGGPSSGAPPPS-NH2) is 7.30; for `CC[C@H](C)[C@H](NC(=O)[C@H](CO)NC(=O)[C@H](Cc1ccc(O)cc1)NC(=O)[C@H](CC(=O)O)NC(=O)[C@H](CO)NC(=O)[C@@H](NC(=O)[C@](C)(Cc1ccccc1F)NC(=O)[C@@H](NC(=O)CNC(=O)[C@H](CCC(=O)O)NC(=O)C(C)(C)NC(=O)[C@@H](N)Cc1ccc(O)cc1)[C@@H](C)O)[C@@H](C)CC)C(=O)N[C@@H](C)C(=O)N[C@@H](CC(C)C)C(=O)N[C@@H](CC(=O)O)C(=O)N[C@@H](CCCCN)C(=O)N[C@@H](CCCCNC(=O)COCCOCCNC(=O)COCCOCCNC(=O)CC[C@H](NC(=O)CCCCCCCCCCCCCCCCCCC(=O)O)C(=O)O)C(=O)N[C@@H](Cc1c[nH]cn1)C(=O)N[C@@H](CCC(N)=O)C(=O)NC(C)(C)C(=O)N[C@@H](CC(=O)O)C(=O)N[C@@H](Cc1ccccc1)C(=O)N[C@H](C(=O)N[C@@H](CCC(=O)O)C(=O)N[C@@H](Cc1ccc(O)cc1)C(=O)N[C@@H](CC(C)C)C(=O)N[C@@H](CC(C)C)C(=O)N[C@@H](CCC(=O)O)C(=O)N[C@H](C(=O)NCC(=O)N1CCC[C@H]1C(=O)N[C@@H](CO)C(=O)N[C@@H](CO)C(=O)NCC(=O)N[C@@H](C)C(=O)N1CCC[C@H]1C(=O)N1CCC[C@H]1C(=O)N1CCC[C@H]1C(=O)N[C@@H](CO)C(N)=O)[C@@H](C)O)C(C)C` [Example 36] (H-Y[Aib]EGT[αMePhe(2-F)]ISDYSIALDKK([AEEA-AEEA-γGlu-C20 diacid])HQ[Aib]DFVEYLLETGPSSGAPPPS-NH2) it is 6.41.
As to `CC[C@H](C)[C@H](NC(=O)[C@H](Cc1ccccc1)NC(=O)[C@@H](NC(=O)CNC(=O)[C@H](CCC(=O)O)NC(=O)C(C)(C)NC(=O)[C@@H](N)Cc1ccc(O)cc1)[C@@H](C)O)C(=O)N[C@@H](CO)C(=O)N[C@@H](CC(=O)O)C(=O)N[C@@H](Cc1ccc(O)cc1)C(=O)N[C@@H](CO)C(=O)N[C@H](C(=O)N[C@@](C)(CC(C)C)C(=O)N[C@@H](CC(C)C)C(=O)N[C@@H](CC(=O)O)C(=O)N[C@@H](CCCCN)C(=O)N[C@@H](CCCCNC(=O)COCCOCCNC(=O)COCCOCCNC(=O)CC[C@H](NC(=O)CCCCCCCCCCCCCCCCCCC(=O)O)C(=O)O)C(=O)N[C@@H](Cc1c[nH]cn1)C(=O)N[C@@H](CCC(N)=O)C(=O)NC(C)(C)C(=O)N[C@@H](CC(=O)O)C(=O)N[C@@H](Cc1ccccc1)C(=O)N[C@H](C(=O)N[C@@H](CCC(=O)O)C(=O)N[C@@H](Cc1ccncc1)C(=O)N[C@@H](CC(C)C)C(=O)N[C@@H](CC(C)C)C(=O)N[C@@H](C)C(=O)N[C@H](C(=O)NCC(=O)N1CCC[C@H]1C(=O)N[C@@H](CO)C(=O)N[C@@H](CO)C(=O)NCC(=O)N[C@@H](C)C(=O)N1CCC[C@H]1C(=O)N1CCC[C@H]1C(=O)N1CCC[C@H]1C(=O)N[C@@H](CO)C(N)=O)[C@@H](C)O)C(C)C)[C@@H](C)CC` [Example 70] (H-Y[Aib]EGTFISDYSI[αMeL]LDKK([AEEA-AEEA-γGlu-C20 diacid])HQ[Aib]DFVE[4Pal]LLATGPSSGAPPPS-NH2), the pKi is 6.24.
The figure for `CC[C@H](C)[C@H](NC(=O)[C@H](CO)NC(=O)[C@H](Cc1ccc(O)cc1)NC(=O)[C@H](CC(=O)O)NC(=O)[C@H](CO)NC(=O)[C@@H](NC(=O)[C@](C)(Cc1ccccc1)NC(=O)[C@@H](NC(=O)CNC(=O)[C@H](CCC(=O)O)NC(=O)C(C)(C)NC(=O)[C@@H](N)Cc1ccc(O)cc1)[C@@H](C)O)[C@@H](C)CC)C(=O)N[C@@](C)(CC(C)C)C(=O)N[C@@H](CC(C)C)C(=O)N[C@@H](CC(=O)O)C(=O)N[C@@H](CCCCN)C(=O)N[C@@H](CCCCNC(=O)COCCOCCNC(=O)COCCOCCNC(=O)CC[C@H](NC(=O)CCCCCCCCCCCCCCCCCCC(=O)O)C(=O)O)C(=O)N[C@@H](Cc1c[nH]cn1)C(=O)N[C@@H](CCC(N)=O)C(=O)NC(C)(C)C(=O)N[C@@H](CCC(=O)O)C(=O)N[C@@H](Cc1ccccc1)C(=O)N[C@H](C(=O)N[C@@H](CCC(=O)O)C(=O)N[C@@H](Cc1ccncc1)C(=O)N[C@@H](CC(C)C)C(=O)N[C@@H](CC(C)C)C(=O)N[C@@H](C)C(=O)N[C@@H](CCC(N)=O)C(=O)NCC(=O)N1CCC[C@H]1C(=O)N[C@@H](CO)C(=O)N[C@@H](CO)C(=O)NCC(=O)N[C@@H](C)C(=O)N1CCC[C@H]1C(=O)N1CCC[C@H]1C(=O)N1CCC[C@H]1C(=O)N[C@@H](CO)C(N)=O)C(C)C` [Example 60] (H-Y[Aib]EGT[αMeF]ISDYSI[αMeL]LDKK([AEEA-AEEA-γGlu-C20 diacid])HQ[Aib]EFVE[4Pal]LLAQGPSSGAPPPS-NH2) is 7.29.
